Structures can show the parent of a compound that is named as a salt.

Chain of IRAK-4 (Q9NWZ3 whole entry, species assumed): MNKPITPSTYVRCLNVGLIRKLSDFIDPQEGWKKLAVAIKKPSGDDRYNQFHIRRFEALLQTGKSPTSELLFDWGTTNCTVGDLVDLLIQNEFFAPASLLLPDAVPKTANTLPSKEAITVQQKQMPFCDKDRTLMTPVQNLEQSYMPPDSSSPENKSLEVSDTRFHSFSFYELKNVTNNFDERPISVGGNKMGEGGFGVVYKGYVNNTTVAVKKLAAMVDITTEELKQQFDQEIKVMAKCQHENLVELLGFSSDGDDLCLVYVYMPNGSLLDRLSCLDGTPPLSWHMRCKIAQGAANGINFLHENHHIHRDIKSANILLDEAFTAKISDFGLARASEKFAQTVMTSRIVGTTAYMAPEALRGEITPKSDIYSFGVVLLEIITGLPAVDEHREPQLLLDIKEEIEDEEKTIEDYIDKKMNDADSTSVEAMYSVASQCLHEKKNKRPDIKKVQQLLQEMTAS

This experiment addresses IRAK-4 (Homo sapiens (Human), UniProt Q9NWZ3). The experiment is described as follows: In vitro IRAK-4 kinase assay. The settings on record: purified recombinant IRAK-4, 50 uM ATP, 33P peptide phosphorylation. In kind it is biochemical. On the procedure:
Purified recombinant IRAK-4 protein was incubated with 250 uM synthetic peptide ([…]) in 30 ul of kinase buffer including (20 mM MOPS pH7.2, 25 mM beta glycerol phosphate, 5 mM EGTA, 1 mM sodium orthovanadate, 1 mM DTT, 50 uM ATP, 20 mM MgCl2, 10 uCi γ-^33P, 0.1% BSA) for the indicated time. For purified recombinant IRAK-1 protein kinase assay, 50 uM ATP was used. A 25 ul aliquot of the reaction mixture was transferred on to p81 phosphocellulose squares (Upstate Biotechnology, Lake Placid, N.Y.). The assay squares were washed three times with 0.75% phosphoric acid and once with acetone. Enzyme activity was measured by determining the bound radioactivity by liquid scintillation counting.
As for `O=C(Nc1cc(Cl)ccc1OC1CCC(O)C1)c1csc2cncnc12` (stereo not drawn) [Example 120, Thieno[3,2-d]pyrimidine-7-carboxylic acid [5-chloro-2-(3-hydroxy-cyclopentyloxy)-phenyl]-amide], the IC50 is 1520 nM. Consider `COc1cc(C(=O)NCCCO)ccc1NC(=O)c1csc2cncnc12` [Example 113, Thieno[3,2-d]pyrimidine-7-carboxylic acid [4-(3-hydroxy-propylcarbamoyl)-2-methoxy-phenyl]-amide], for which the IC50 was found to be 833 nM. To `CNCC1CCN(c2ccc(Cl)cc2NC(=O)c2csc3cncnc23)CC1` [Example 8, Thieno[3,2-d]pyrimidine-7-carboxylic acid [5-chloro-2-(4-methylaminomethyl-piperidin-1-yl)-phenyl]-amide] belongs 8 nM; to `O=C(Nc1cc(Cl)ccc1N1CCC(O)C1)c1cnn2cccnc12` (stereo not drawn) [Example 95, Pyrazolo[1,5-alpha]pyrimidine-3-carboxylic acid [5-chloro-2-(3-hydroxy-pyrrolidin-1-yl)-phenyl]-amide], 493 nM. The result for `O=C(Nc1cc(Cl)ccc1N1CCCC1)c1cnn2cccnc12` [Example 78, Pyrazolo[1,5-alpha]pyrimidine-3-carboxylic acid (5-chloro-2-pyrrolidin-1-yl-phenyl)-amide] reads 312 nM; that for `O=C(Nc1cc(Cl)ccc1Oc1ccccc1)c1cnn2cccnc12` [Example 161, Pyrazolo[1,5-alpha]pyrimidine-3-carboxylic acid (5-chloro-2-phenoxy-phenyl)-amide], 4650 nM; that for `O=C(Nc1cc(Cl)ccc1N1CCCC(O)C1)c1cnn2cccnc12` (stereo not drawn) [Example 91, Pyrazolo[1,5-alpha]pyrimidine-3-carboxylic acid [5-chloro-2-(3-hydroxy-piperidin-1-yl)-phenyl]-amide], 474 nM. Take `COc1cc(C(=O)Nc2ccccc2)c(Cl)cc1NC(=O)c1cnn2cccnc12` [Example 174, Pyrazolo[1,5-alpha]pyrimidine-3-carboxylic acid (5-chloro-2-methoxy-4-phenylcarbamoyl-phenyl)-amide]: the half-inhibitory concentration (IC50) came to 7920 nM. The result for `COc1ccc(Cl)cc1NC(=O)c1csc2cnc(NCCNC(C)=O)nc12` [Example 175, 2-(2-Acetylamino-ethylamino)-thieno[3,2-d]pyrimidine-7-carboxylic acid-(5-chloro-2-methoxy-phenyl)-amide] reads 8090 nM. The result for `COc1cc(-c2ccccc2)ccc1NC(=O)c1cnn2cccnc12` [Example 165, Pyrazolo[1,5-alpha]pyrimidine-3-carboxylic acid (3-methoxy-biphenyl-4-yl)-amide] reads 5200 nM; that for `O=C(Nc1cc(Cl)ccc1OCCCO)c1cnn2cccnc12` [Example 84, Pyrazolo[1,5-alpha]pyrimidine-3-carboxylic acid [5-chloro-2-(3-hydroxy-propoxy)-phenyl]-amide], 430 nM. The result for `O=C(Nc1cc2cccnc2cc1OC1CCNCC1)c1csc2cncnc12` [Example 56, Thieno[3,2-d]pyrimidine-7-carboxylic acid [7-(piperidin-4-yloxy)-quinolin-6-yl]-amide hydrochloride] reads 125 nM. In the case of `O=C(Nc1cc(Cl)ccc1OCCC(O)CO)c1cnn2cccnc12` (stereo not drawn) [Example 96, Pyrazolo[1,5-alpha]pyrimidine-3-carboxylic acid [5-chloro-2-(3,4-dihydroxy-butoxy)-phenyl]-amide], the concentration for half-maximal inhibition (IC50) turned out to be 506 nM. Turning to `COc1ccc(Cl)cc1NC(=O)c1csc2cnc(NCCCO)nc12` [Example 126, 2-(3-Hydroxy-propylamino)-thieno[3,2-d]pyrimidine-7-carboxylic acid (5-chloro-2-methoxy-phenyl)-amide], the IC50 stood at 2060 nM. To `Cc1cc2cc(-c3ccc(CO)cc3)c(NC(=O)c3cnn4cccnc34)cc2[nH]1` [Example 36, Pyrazolo[1,5-alpha]pyrimidine-3-carboxylic acid [5-(4-hydroxymethyl-phenyl)-2-methyl-1H-indol-6-yl]-amide] belongs 52 nM; to `NCC1CCN(c2ccc(Cl)cc2NC(=O)c2cnn3cccnc23)C1` (stereo not drawn) [Example 101, Pyrazolo[1,5-alpha]pyrimidine-3-carboxylic acid [2-(3-aminomethyl-pyrrolidin-1-yl)-5-chloro-phenyl]-amide], 564 nM. Take `O=C(Nc1cc(Cl)ccc1N1CCOCC1)c1cnn2cccnc12` [Example 99, Pyrazolo[1,5-alpha]pyrimidine-3-carboxylic acid (5-chloro-2-morpholin-4-yl-phenyl)-amide]: the concentration for half-maximal inhibition (IC50) was 523 nM. The result for `O=C(Nc1cc(Cl)ccc1OCc1cccc(O)c1)c1cnn2cccnc12` [Example 141, Pyrazolo[1,5-alpha]pyrimidine-3-carboxylic acid [5-chloro-2-(3-hydroxy-benzyloxy)-phenyl]-amide] reads 2630 nM; that for `COc1cc2ccc(CO)cc2cc1NC(=O)c1cnn2cccnc12` [Example 82, Pyrazolo[1,5-alpha]pyrimidine-3-carboxylic acid (7-hydroxymethyl-3-methoxy-naphthalen-2-yl)-amide], 358 nM; that for `O=C(Nc1cc(Cl)ccc1C1CCCCC1)c1cnn2cccnc12` [Example 112, Pyrazolo[1,5-alpha]pyrimidine-3-carboxylic acid (5-chloro-2-cyclohexyl-phenyl)-amide], 799 nM. To `O=C(Nc1cc(Cl)ccc1-c1ccc(O)cc1)c1cnn2cccnc12` [Example 94, Pyrazolo[1,5-alpha]pyrimidine-3-carboxylic acid (4-chloro-4′-hydroxy-biphenyl-2-yl)-amide] belongs 477 nM. The result for `CCc1ccc(Cl)cc1NC(=O)c1cnn2cccnc12` [Example 154, Pyrazolo[1,5-alpha]pyrimidine-3-carboxylic acid (5-chloro-2-ethyl-phenyl)-amide] reads 3800 nM; that for `COc1cc2ncccc2cc1NC(=O)c1csc2cnc(NCC(C)C)nc12` [Example 73, 2-Isobutylamino-thieno[3,2-d]pyrimidine-7-carboxylic acid (7-methoxy-quinolin-6-yl)-amide], 271 nM.

In the case of `COc1ccc(/C=C/CO)cc1NC(=O)c1cnn2cccnc12` [Example 152, Pyrazolo[1,5-alpha]pyrimidine-3-carboxylic acid [5-(3-hydroxy-propenyl)-2-methoxy-phenyl]-amide], the half-inhibitory concentration (IC50) came to 3700 nM.

For the compound `O=C(Nc1cccc(NCCCO)c1N1CCCCC1)c1cnn2cccnc12` [Example 144, Pyrazolo[1,5-alpha]pyrimidine-3-carboxylic acid [3-(3-hydroxy-propylamino)-2-piperidin-1-yl-phenyl]-amide], the IC50 was 2850 nM. The result for `COCCCOc1ccc(Cl)cc1NC(=O)c1cnn2cccnc12` [Example 138, Pyrazolo[1,5-alpha]pyrimidine-3-carboxylic acid [5-chloro-2-(3-methoxy-propoxy)-phenyl]-amide] reads 2420 nM; that for `O=C(Nc1cc(Cl)ccc1OC[C@@H](O)CO)c1cnn2cccnc12` [Example 137, Pyrazolo[1,5-alpha]pyrimidine-3-carboxylic acid [5-chloro-2-(2,3-dihydroxy-propoxy)-phenyl]-amide], 2310 nM. Consider `COc1ccc(Cl)cc1NC(=O)c1csc2cnc(N(C)CCN)nc12` [Example 86, 2-[(2-Amino-ethyl)-methyl-amino]-thieno[3,2-d]pyrimidine-7-carboxylic acid (5-chloro-2-methoxy-phenyl)-amide], for which the IC50 came out at 436 nM.

Consider `COc1cc(CO)ccc1NC(=O)c1cnn2cccnc12` [Example 177, Pyrazolo[1,5-alpha]pyrimidine-3-carboxylic acid (4-hydroxymethyl-2-methoxy-phenyl)-amide], for which the concentration for half-maximal inhibition (IC50) came out at 8670 nM. To `O=C(Nc1cc(Cl)ccc1OC1CCC(O)CC1)c1cnn2cc(CCCO)cnc12` (stereo not drawn) [Example 178, 6-(3-Hydroxy-propyl)-pyrazolo[1,5-alpha]pyrimidine-3-carboxylic acid [5-chloro-2-(4-hydroxy-cyclohexyloxy)-phenyl]-amide] belongs 9420 nM; to `O=C(Nc1cc(Cl)ccc1OC1CCC(O)CC1)c1cnn2cc(CO)cnc12` (stereo not drawn) [Example 133, 6-Hydroxymethyl-pyrazolo[1,5-alpha]pyrimidine-3-carboxylic acid [5-chloro-2-(4-hydroxy-cyclohexyloxy)-phenyl]-amide], 2250 nM. On to `O=C(Nc1cc(Cl)ccc1OCc1cnco1)c1cnn2cccnc12` [Example 98, Pyrazolo[1,5-alpha]pyrimidine-3-carboxylic acid [5-chloro-2-(oxazol-5-ylmethoxy)-phenyl]-amide], for which the half-maximal inhibitory concentration (IC50) was 516 nM. Consider `COc1cnc2c(C(=O)Nc3cc(Cl)ccc3N3CCC(CN)CC3)cnn2c1` [Example 71, 6-Methoxy-pyrazolo[1,5-alpha]pyrimidine-3-carboxylic acid [2-(4-aminomethyl-piperidin-1-yl)-5-chloro-phenyl]-amide], for which the 50% inhibitory concentration (IC50) is 254 nM. To `CNCC1CCN(c2ccc(Cl)cc2NC(=O)c2csc3cncnc23)CC1` [Example 151, Thieno[3,2-d]pyrimidine-7-carboxylic acid [5-chloro-2-(4-methylaminomethyl-piperidin-1-yl)-phenyl]-amide] belongs 3540 nM; to `NCC1CCN(c2c(N)cccc2NC(=O)c2cnn3cccnc23)CC1` [Example 59, Pyrazolo[1,5-alpha]pyrimidine-3-carboxylic acid [3-amino-2-(4-aminomethyl-piperidin-1-yl)-phenyl]-amide], 133 nM; to `CC(O)CCOc1cc2ncccc2cc1NC(=O)c1csc2cncnc12` (stereo not drawn) [Example 28], 33 nM.
